Results as given in patent publication US20240252677A1, “ONE-COMPONENT DELIVERY SYSTEM FOR NUCLEIC ACIDS” (The Trustees of the University of Pennsylvania, priority 2021, published 2024).

Assays:
[1] = Stability of DNPs by DLS after storage at 5° C.; type: physicochemical; set-up: key to Original size distribution type (DLS curve) / Size distribution type (DLS curve): U: DLS curve showed unimodal size distribution; B: DLS curve showed bimodal size distribution; M: DLS curve showed multimodal size distribution; conditions: for pH Sample: DNPs: IAJD 4.0 mg/mL + Luc-mRNA 0.1 mg/mL, injection in acetate buffer pH 4.00; for PDI / Size (d, nm) / Original size distribution type (DLS curve): IAJD 4.0 mg/mL + Luc-mRNA 0.1 mg/mL; for PDI / Size (d, nm): acetate buffer; for Original size distribution type (DLS curve): before storage, acetate buffer pH 4.00
Outline: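 DNPs in acetate buffer sized by DLS after storage at 5 °C. Stability ranked Excellent, Good or Not stable according to retention, shrinkage or growth of original size and narrowing or broadening of size distribution.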

[2] = Dimensions (size, PDI) of DNPs co-assembled from IAJDs and Luc-mRNA by DLS; type: physicochemical
Outline: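 IAJDs (80 mg/mL ethanol stock) rapidly injected into Luc-mRNA (4.0 mg/mL stock) diluted in 10 mM acetate buffer pH 4.0, then vortexed 5 s. Size and polydispersity of resulting DNPs measured by DLS (633 nm laser, 175° detection) at 23 °C.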

lung = assay: In vivo mRNA delivery, IVIS imaging of organs: lung; set-up: species or system mice; key to Organs with luminescence: lung: strong: Strong meant the luminescence intensity in that organ was relatively high, compared to other organs; weak: Weak meant the luminescence intensity in that organ was relatively low, compared to other organs; conditions: Table 17; mice, IVIS, 4-6 h after injection; intensity relative to other organs
spleen = assay: In vivo mRNA delivery, IVIS imaging of organs: spleen; set-up: species or system mice; key to Organs with luminescence: spleen: strong: Strong meant the luminescence intensity in that organ was relatively high, compared to other organs; weak: Weak meant the luminescence intensity in that organ was relatively low, compared to other organs; conditions: Table 17; mice, IVIS, 4-6 h after injection; intensity relative to other organs
BALB/c mice = assay: In vivo mRNA delivery in mice with DNPs, whole-body bioluminescence imaging (IVIS)
liver = assay: In vivo mRNA delivery, IVIS imaging of organs: liver; set-up: species or system mice; key to Organs with luminescence: liver: strong: Strong meant the luminescence intensity in that organ was relatively high, compared to other organs; weak: Weak meant the luminescence intensity in that organ was relatively low, compared to other organs; conditions: Table 17; mice, IVIS, 4-6 h after injection; intensity relative to other organs
[3] = Table 16, DNPs from IAJD 4 mg/mL and Luc-mRNA 0.10 mg/mL by injection in acetate buffer (10 mM, pH 4.0)
[4] = Table 17, DNPs used in vivo, IAJD 4 mg/mL, Luc-mRNA 0.10 mg/mL, acetate pH 4.0
[5] = Table 20, nonsymmetric IAJDs and MC3-Luc-mRNA

| SMILES | pH Sample [1] | Size distribution type (DLS curve) ([1]; after 21 days at 5° C.) | PDI ([1]; after 21 days at 5° C.) | Size (d, nm) ([1]; after 21 days at 5° C.) | Original size distribution type (DLS curve) [1] | PDI [2, 3] | Size (d, nm) [2, 3] | PDI [2, 4] | Size (d, nm) [2, 4] | Organs with luminescence: lung (lung) | Organs with luminescence: spleen (spleen) | In vivo activity (total flux, p/s) (BALB/c mice; Table 19, nonsymmetric IAJDs) | Organs with luminescence: liver (liver) | In vivo activity (total flux, p/s) (BALB/c mice; [5]) | Size distribution type (DLS curve) ([1]; after 14 days at 5° C.) | PDI ([1]; after 14 days at 5° C.) | Size (d, nm) ([1]; after 14 days at 5° C.) | total flux luminescence (BALB/c mice; mice, in vivo Luc-mRNA transfection) | in vivo activity, times higher than symmetric IAJD with the same headgroup (BALB/c mice; nonsymmetric vs symmetric alkyl chains (178 vs 99 (18/18))) | in vivo activity, times lower than of MC3 (BALB/c mice; total flux luminescence vs MC3) |
| --- | --- | --- | --- | --- | --- | --- | --- | --- | --- | --- | --- | --- | --- | --- | --- | --- | --- | --- | --- | --- |
| CCCCCCCCCCCCCOc1cc(COC(=O)CCCN2CCN(C)CC2)cc(OCC(CC)CCCC)c1 (stereo not drawn) [IAJD 161, 3-((2-Ethylhexyl)oxy)-5-(tridecyloxy)benzyl 4-(4-methylpiperazin-1-yl)butanoate] | 4.97 | (U) | 0.226 | 125 nm | (U) | 0.235 | 129 nm | 0.235 | 129 nm | Lung (weak), | spleen (strong) | 8.48 × 10^7 p/s | liver (strong), | – | – | – | – | – | – | – |
| CCCCCCCCCCCCCOc1cc(COC(=O)CCCN2CCN(CCO)CC2)cc(OCC(CC)CCCC)c1 (stereo not drawn) [IAJD 162, 3-((2-Ethylhexyl)oxy)-5-(tridecyloxy)benzyl 4-(4-(2-hydroxyethyl)piperazin-1-yl)butanoate] | 4.66 | (B) | 0.291 | 182 nm | (B) | 0.301 | 191 nm | 0.301 | 191 nm | Lung (weak), | spleen (strong) | 2.03 × 10^8 p/s | liver (weak), | 2.03 × 10^8 p/s | – | – | – | – | – | – |
| CCCCCCCCCCCCCCOc1cc(COC(=O)CCCN2CCN(C)CC2)cc(OCCCCCCCCCCCCC)c1 [IAJD 171, 3-(Tetradecyloxy)-5-(tridecyloxy)benzyl 4-(4-methylpiperazin-1-yl)butanoate] | 4.88 | (U) | 0.277 | 175 nm | (U) | 0.268 | 174 nm | 0.268 | 174 nm | Lung (weak), | spleen (strong) | 7.68 × 10^7 p/s | liver (strong), | 7.68 × 10^7 p/s | – | – | – | – | – | – |
| CCCCCCCCCCCCCCOc1cc(COC(=O)CCCN2CCN(CCO)CC2)cc(OCCCCCCCCCCCCC)c1 [IAJD 172, 3-(Tetradecyloxy)-5-(tridecyloxy)benzyl 4-(4-(2-hydroxyethyl)piperazin-1-yl)butanoate] | 4.84 | – | – | – | (U) | 0.203 | 235 nm | 0.203 | 235 nm | Lung (weak), | spleen (strong) | 6.82 × 10^7 p/s | liver (weak), | – | (U) | 0.219 | 225 nm | – | – | – |
| CCCCCCCCCCCCCCCCOc1cc(COC(=O)CCCN2CCN(C)CC2)cc(OCCCCCCCCCCCCC)c1 [IAJD 173, 3-(Hexadecyloxy)-5-(tridecyloxy)benzyl 4-(4-methylpiperazin-1-yl)butanoate] | 4.79 | (B) | 0.376 | 132 nm | (U) | 0.301 | 139 nm | 0.301 | 139 nm | Lung (weak), | spleen (weak) | 1.23 × 10^8 p/s | liver (strong), | 1.23 × 10^8 p/s | – | – | – | – | – | – |
| CCCCCCCCCCCCCCCCCCOc1cc(COC(=O)CCCN2CCN(C)CC2)cc(OCCCCCCCCCCCCC)c1 [IAJD 177, 3-(Octadecyloxy)-5-(tridecyloxy)benzyl 4-(4-methylpiperazin-1-yl)butanoate] | 4.76 | (B) | 0.218 | 153 nm | (B) | 0.275 | 159 nm | 0.275 | 159 nm | Lung (weak), | spleen (strong) | 9.18 × 10^7 p/s | liver (strong), | 9.18 × 10^7 p/s | – | – | – | – | – | – |
| CCCCCCCCCCCCCCCCCCOc1cc(COC(=O)CCCN2CCN(CCO)CC2)cc(OCCCCCCCCCCCCC)c1 [IAJD 178, 3-(Octadecyloxy)-5-(tridecyloxy)benzyl 4-(4-(2-hydroxyethyl)piperazin-1-yl)butanoate] | 4.58 | (U) | 0.261 | 261 nm | (U) | 0.223 | 344 nm | 0.223 | 344 nm | Lung (weak), | spleen (strong) | 4.05 × 10^8 p/s | liver (weak), | 4.05 × 10^8 p/s | – | – | – | 4.05×10^8 p/s | 90.2 times | 4.2 times |
